From patent US9079974B2, “GH-RH analogs with potent agonistic effects” (The University of Miami, priority 2011, dated 2015)
“Also recorded” adds a separate entry of the source. Square brackets hold non-standard residues; d marks the D form. Peptide text beside a SMILES is read from it. * marks the point of attachment. Phe(F5) = N[C@@H](Cc1c(F)c(F)c(F)c(F)c1F)C(=O)O; Desaminotyrosyl = O=C(CCc1ccc(O)cc1)*; NMeY = CN[C@@H](Cc1ccc(O)cc1)C(=O)O; Agmatine = N=C(N)NCCCCN*; Nle = CCCC[C@H](N)C(=O)O; Orn = NCCC[C@H](N)C(=O)O; Abu = CC[C@H](N)C(=O)O; Ava = NCCCCC(=O)O; GABA = NCCCC(=O)O

How the values were obtained:
GH release = test: In vivo GH release after subcutaneous administration; conditions: rat, s.c.
Experimental: Blood samples are taken from the jugular vein; 5, 15 and 30 minutes or only 15 and 30 minutes after the injection. The blood samples are centrifuged, plasma is removed and the GH level is measured by ELISA. The results are summarized in terms of potency in Table 9.

GHRH receptor = target: T1, GHRH receptor (Homo sapiens, UniProt Q02643); test: GHRH receptor binding, 125I-labeled JV-1-42 ligand competition, human pituitary membrane homogenates (Table 7); conditions: for IC50: 125I-labeled JV-1-42, human pituitary membranes
T1 construct: Normal human pituitaries were purchased from the National Hormone and Peptide Program; tissue National Hormone and Peptide Program (A. F. Parlow); host or cells: normal human pituitary, membrane fraction
T1 sequence (Q02643 23-423): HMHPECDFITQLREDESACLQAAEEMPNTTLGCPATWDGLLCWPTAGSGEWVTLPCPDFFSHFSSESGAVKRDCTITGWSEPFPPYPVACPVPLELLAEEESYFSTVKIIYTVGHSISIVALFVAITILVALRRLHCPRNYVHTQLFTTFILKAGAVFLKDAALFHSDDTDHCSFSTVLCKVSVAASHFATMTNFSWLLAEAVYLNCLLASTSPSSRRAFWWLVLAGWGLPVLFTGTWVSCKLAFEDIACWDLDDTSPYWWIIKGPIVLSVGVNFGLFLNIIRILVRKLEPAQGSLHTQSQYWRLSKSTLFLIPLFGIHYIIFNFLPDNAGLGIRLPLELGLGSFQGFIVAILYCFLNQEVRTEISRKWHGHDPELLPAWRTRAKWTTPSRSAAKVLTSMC
Experimental: Preparation of human pituitary membrane fraction and receptor binding of GHRH agonists were performed as previously described, by using a sensitive in vitro ligand competition assay based on binding of ^125I-labeled JV-1-42 to human pituitary membrane homogenates. Normal human pituitaries were purchased from the National Hormone and Peptide Program (A. F. Parlow, Los Angeles, County Harbor-UCLA Medical Center, Torrance, Calif.).

Structure (SMILES)	GH response after subcutaneous administration (in words) (GH release)	IC50 (GHRH receptor)	Relative affinity (Binding potency) vs JI-38 (GHRH receptor; relative to JI-38 = 1)
CCCC[C@H](NC(=O)[C@@H](NC(=O)[C@H](CC(=O)O)NC(=O)[C@H](CCC(N)=O)NC(=O)[C@H](CC(C)C)NC(=O)[C@H](CC(C)C)NC(=O)[C@H](CCCN)NC(=O)[C@H](CCCNC(=N)N)NC(=O)[C@H](C)NC(=O)[C@H](CO)NC(=O)[C@H](CC(C)C)NC(=O)[C@H](CCC(N)=O)NC(=O)[C@H](CC)NC(=O)[C@H](CC(C)C)NC(=O)[C@@H](NC(=O)[C@H](CCCN)NC(=O)[C@H](CCCNC(=N)N)NC(=O)[C@H](Cc1ccc(O)cc1)NC(=O)[C@H](CO)NC(=O)[C@H](CCC(N)=O)NC(=O)[C@@H](NC(=O)[C@H](Cc1ccccc1)NC(=O)[C@@H](NC(=O)[C@H](C)NC(=O)[C@H](CC(=O)O)NC(=O)[C@@H](C)NC(=O)CCc1ccc(O)cc1)[C@@H](C)CC)[C@@H](C)O)C(C)C)[C@@H](C)CC)C(=O)N[C@@H](CC(=O)O)C(=O)NCCCCNC(=N)N [Peptide P-20350, [Dat^1, D-Ala^2, Gln^8, Orn^12, Abu^15, Orn^21, Nle^27, Asp^28, Agm^29]hGH-RH(1-29)] (Desaminotyrosyl-[dA]DAIFTQSYR[Orn]VL[Abu]QLSAR[Orn]LLQDI[Nle]D-Agmatine)	unusually high responses; also recorded: especially greater growth hormone levels than hGH-RH or JI-38		
CCCC[C@H](NC(=O)[C@@H](NC(=O)[C@H](CC(=O)O)NC(=O)[C@H](CCC(N)=O)NC(=O)[C@H](CC(C)C)NC(=O)[C@H](CC(C)C)NC(=O)[C@H](CCCN)NC(=O)[C@H](CCCNC(=N)N)NC(=O)[C@H](C)NC(=O)[C@H](CO)NC(=O)[C@H](CC(C)C)NC(=O)[C@H](CCC(N)=O)NC(=O)[C@H](CC)NC(=O)[C@H](CC(C)C)NC(=O)[C@@H](NC(=O)[C@H](CCCN)NC(=O)[C@H](CCCNC(=N)N)NC(=O)[C@H](Cc1ccc(O)cc1)NC(=O)[C@H](CO)NC(=O)[C@H](CCC(N)=O)NC(=O)[C@@H](NC(=O)[C@H](Cc1ccccc1)NC(=O)[C@@H](NC(=O)[C@H](C)NC(=O)[C@H](CC(=O)O)NC(=O)[C@@H](C)NC(=O)[C@H](Cc1ccc(O)cc1)NC)[C@@H](C)CC)[C@@H](C)O)C(C)C)[C@@H](C)CC)C(=O)N[C@@H](CC(=O)O)C(=O)N[C@@H](CCCNC(=N)N)C(=O)NCCCCC(N)=O [Peptide P-22326, [N—Me-Tyr^1, D-Ala^2, Gln^8, Orn^12, Abu^15, Orn^21, Nle^27, Asp^28, Apa^30]hGH-RH(1-30)NH2] (H-[NMeY][dA]DAIFTQSYR[Orn]VL[Abu]QLSAR[Orn]LLQDI[Nle]DR[Ava]-NH2)	unusually high responses; also recorded: especially greater growth hormone levels than hGH-RH or JI-38	0.71 nM	
CCCC[C@H](NC(=O)[C@@H](NC(=O)[C@H](CC(=O)O)NC(=O)[C@H](CCC(N)=O)NC(=O)[C@H](CC(C)C)NC(=O)[C@H](CC(C)C)NC(=O)[C@H](CCCN)NC(=O)[C@H](CCCNC(=N)N)NC(=O)[C@H](C)NC(=O)[C@H](CO)NC(=O)[C@H](CC(C)C)NC(=O)[C@H](CCC(N)=O)NC(=O)[C@H](CC)NC(=O)[C@H](CC(C)C)NC(=O)[C@@H](NC(=O)[C@H](CCCN)NC(=O)[C@H](CCCNC(=N)N)NC(=O)[C@H](Cc1ccc(O)cc1)NC(=O)[C@H](CO)NC(=O)[C@H](CC(N)=O)NC(=O)[C@@H](NC(=O)[C@H](Cc1ccccc1)NC(=O)[C@@H](NC(=O)[C@H](C)NC(=O)[C@H](CC(=O)O)NC(=O)[C@@H](C)NC(=O)[C@H](Cc1ccc(O)cc1)NC)[C@@H](C)CC)[C@@H](C)O)C(C)C)[C@@H](C)CC)C(=O)N[C@@H](CO)C(=O)N[C@@H](CCCNC(=N)N)C(=O)NCCCC(N)=O [Peptide P-25501, [N—Me-Tyr^1, D-Ala^2, Orn^12, Abu^15, Orn^21, Nle^27, Gab^30]hGH-RH(1-30)NH2] (H-[NMeY][dA]DAIFTNSYR[Orn]VL[Abu]QLSAR[Orn]LLQDI[Nle]SR[GABA]-NH2)	unusually high responses; also recorded: especially greater growth hormone levels than hGH-RH or JI-38	1.07 nM	
CCCC[C@H](NC(=O)[C@@H](NC(=O)[C@H](CC(=O)O)NC(=O)[C@H](CCC(N)=O)NC(=O)[C@H](CC(C)C)NC(=O)[C@H](CC(C)C)NC(=O)[C@H](CCCN)NC(=O)[C@H](CCCNC(=N)N)NC(=O)[C@H](C)NC(=O)[C@H](CO)NC(=O)[C@H](CC(C)C)NC(=O)[C@H](CCC(N)=O)NC(=O)[C@H](CC)NC(=O)[C@H](CC(C)C)NC(=O)[C@@H](NC(=O)[C@H](CCCN)NC(=O)[C@H](CCCNC(=N)N)NC(=O)[C@H](Cc1ccc(O)cc1)NC(=O)[C@H](CO)NC(=O)[C@H](CC(N)=O)NC(=O)[C@@H](NC(=O)[C@H](Cc1c(F)c(F)c(F)c(F)c1F)NC(=O)[C@@H](NC(=O)[C@H](C)NC(=O)[C@H](CC(=O)O)NC(=O)[C@@H](C)NC(=O)[C@H](Cc1ccc(O)cc1)NC)[C@@H](C)CC)[C@@H](C)O)C(C)C)[C@@H](C)CC)C(=O)N[C@@H](CC(=O)O)C(=O)N[C@@H](CCCNC(=N)N)C(=O)NC [Peptide P-27404, [N—Me-Tyr^1, D-Ala^2, Fpa5^6, Orn^12, Abu^15, Orn^21, Nle^27, Asp^28]hGH-RH(1-29)NH—CH3] (H-[NMeY][dA]DAI[Phe(F5)]TNSYR[Orn]VL[Abu]QLSAR[Orn]LLQDI[Nle]DR-NHMe)	unusually high responses; also recorded: especially greater growth hormone levels than hGH-RH or JI-38	0.87 nM	5.00
CCCC[C@H](NC(=O)[C@@H](NC(=O)[C@H](CC(=O)O)NC(=O)[C@H](CCC(N)=O)NC(=O)[C@H](CC(C)C)NC(=O)[C@H](CC(C)C)NC(=O)[C@H](CCCN)NC(=O)[C@H](CCCNC(=N)N)NC(=O)[C@H](C)NC(=O)[C@H](CO)NC(=O)[C@H](CC(C)C)NC(=O)[C@H](CCC(N)=O)NC(=O)[C@H](CC)NC(=O)[C@H](CC(C)C)NC(=O)[C@@H](NC(=O)[C@H](CCCN)NC(=O)[C@H](CCCNC(=N)N)NC(=O)[C@H](Cc1ccc(O)cc1)NC(=O)[C@H](CO)NC(=O)[C@H](CC(N)=O)NC(=O)[C@@H](NC(=O)[C@H](Cc1ccccc1)NC(=O)[C@@H](NC(=O)[C@H](C)NC(=O)[C@H](CC(=O)O)NC(=O)[C@@H](C)NC(=O)[C@H](Cc1ccc(O)cc1)NC)[C@@H](C)CC)[C@@H](C)O)C(C)C)[C@@H](C)CC)C(=O)N[C@@H](CC(=O)O)C(=O)N[C@@H](CCCNC(=N)N)C(=O)NC [Peptide P-27409, [N—Me-Tyr^1, D-Ala^2, Orn^12, Abu^15, Orn^21, Nle^27, Asp^28]hGH-RH(1-29)NH—CH3] (H-[NMeY][dA]DAIFTNSYR[Orn]VL[Abu]QLSAR[Orn]LLQDI[Nle]DR-NHMe)	unusually high responses; also recorded: especially greater growth hormone levels than hGH-RH or JI-38	1.06 nM	
